One test has as its target T1, human JMJD5 (Homo sapiens, UniProt Q8N371).
T1 construct: made in house; host or cells: Escherichia coli BL21(DE3)
The experiment in a line: SPE-MS JMJD5 turnover and kinetic assay (RPS6_128–148 hydroxylation). Type of test: biochemical.

Another test addresses T2, human KDM4E (Homo sapiens, UniProt B2RXH2).
T2 sequence (B2RXH2 1-506): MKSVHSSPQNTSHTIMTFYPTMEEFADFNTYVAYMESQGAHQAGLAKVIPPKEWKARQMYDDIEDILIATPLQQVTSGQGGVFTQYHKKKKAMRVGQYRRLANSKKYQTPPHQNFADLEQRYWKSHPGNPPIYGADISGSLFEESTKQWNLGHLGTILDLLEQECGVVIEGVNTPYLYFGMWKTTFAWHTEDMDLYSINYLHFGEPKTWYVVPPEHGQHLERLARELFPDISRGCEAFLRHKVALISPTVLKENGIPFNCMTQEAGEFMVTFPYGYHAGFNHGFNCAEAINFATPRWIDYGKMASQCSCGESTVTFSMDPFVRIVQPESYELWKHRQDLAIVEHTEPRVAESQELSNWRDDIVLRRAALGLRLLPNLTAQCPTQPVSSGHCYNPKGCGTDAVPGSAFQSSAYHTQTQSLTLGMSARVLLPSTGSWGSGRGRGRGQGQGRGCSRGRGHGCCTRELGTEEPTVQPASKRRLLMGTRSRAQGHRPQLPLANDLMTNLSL
The experiment in a line: KDM4E SPE-MS turnover and kinetic assay (H3 K9(me3) peptide demethylation). Type of test: biochemical.

A further test relates to human FIH. As to conditions: FIH 0.15 μM, cited from earlier work.
For the next test, the system named is human AspH. As to conditions: AspH315–758 0.1 μM, hFX–CP101–119 substrate; cited from earlier work.
In a further test the test system is KDM4C. On the set-up: method as in PMID 21859681. As to conditions: KDM4C 0.5 μM, ARTAQTARK(me3)STGGIA substrate; cited from earlier work.
The subject of the next test is PHD2. On the set-up: method as in PMID 18952043. To be noted: PHD2 1.0 nM, biotin-[…] substrate; cited from earlier work.
The test system of a further test is JMJD5. To be noted: 10.0 μM JMJD5, 50 mM HEPES pH 7.5; read-out: Km JMJD5 (MALDI-TOF MS assay); cited from earlier work.

T1 sequence (Q8N371 whole entry): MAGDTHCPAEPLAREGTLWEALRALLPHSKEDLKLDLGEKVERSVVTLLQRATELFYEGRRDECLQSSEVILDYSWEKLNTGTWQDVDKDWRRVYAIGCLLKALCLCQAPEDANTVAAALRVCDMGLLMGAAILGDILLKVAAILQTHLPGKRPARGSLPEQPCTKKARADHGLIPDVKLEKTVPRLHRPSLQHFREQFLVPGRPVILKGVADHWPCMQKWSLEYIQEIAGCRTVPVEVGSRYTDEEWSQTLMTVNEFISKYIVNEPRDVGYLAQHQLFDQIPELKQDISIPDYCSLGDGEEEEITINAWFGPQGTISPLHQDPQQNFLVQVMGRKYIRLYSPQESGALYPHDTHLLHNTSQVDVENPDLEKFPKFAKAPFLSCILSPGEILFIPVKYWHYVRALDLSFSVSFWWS

As to `O=C(O)CCC(=O)C(=O)O` [2OG, 2-oxoglutarate, reference compound], the v app max was 0.84 ± 0.03 nM/s on human JMJD5 (0.15 μM JMJD5, 50 mM MOPS pH 7.5, 20 °C, 100 μM LAA present) and 20.6 ± 1.3 nM/s on human KDM4E (0.15 μM KDM4E, ARTAQTARK(me3)STGGIA 10.0 μM, 50 mM MES pH 7.0, 20 °C). The K app m on human JMJD5 (0.15 μM JMJD5, 50 mM MOPS pH 7.5, 20 °C, LAA present) was 0.29 ± 0.04 µM; on human KDM4E (0.15 μM KDM4E, ARTAQTARK(me3)STGGIA 10 μM), 4.2 ± 1.1 µM. Further, the k app cat on human JMJD5 (0.15 μM JMJD5, 50 mM MOPS pH 7.5, 20 °C, LAA present, calculated from vmax) is 0.0056 ± 0.0002 s⁻¹. In addition, on human JMJD5 (absence of 2OG, JMJD5 0.15 μM, 2OG derivative 400 μM, Fe(II) 20 μM, RPS6_128–148 2.0 μM), the “JMJD5 (%): RPS6_128–148 hydroxylation with the compound as cosubstrate” value is given as ~ 40%. Moreover, the “JMJD5-catalyzed RPS6_128–148 hydroxylation, time course” value at human JMJD5 (after 50 min, 10 μM cosubstrate, 0.15 μM JMJD5, 10 μM Fe(II), 2.0 μM RPS6_128–148) is approximately 50%. In addition, the “KDM4E (%): substrate demethylation with the compound as cosubstrate” value at human KDM4E (absence of 2OG, KDM4E 0.15 μM, 2OG derivative 330 μM, Fe(II) 50 μM, ARTAQTARK(me3)STGGIA 10.0 μM) was ~ 70%. Besides, the K m is 0.8 ± 0.1 µM in the test with human FIH (HIF-1α788–822 substrate); 0.60 ± 0.09 µM in the test with human AspH; 2.6 ± 0.1 µM in the test with KDM4C; 0.35 ± 0.03 µM with PHD2; approximately 9.5 µM with JMJD5. In addition, the k cat in the test with human FIH (HIF-1α788–822 substrate) was 0.04 ± 0.01 s⁻¹; with KDM4C it was 0.075 ± 0.001 s⁻¹. Further, the “FIH (%): substrate hydroxylation with the compound as cosubstrate” value in the test with human FIH (absence of 2OG, 2OG derivative 330 μM, Fe(II) 50 μM, HIF-1α788–822 5.0 μM) is given as ~ 50%.
